# Test results published in patent US11679167B2, “Ophthalmic compositions, and ocular uses thereof, of indigo carmine” (priority 2018, dated 2023).
# Entries after “also recorded” stand apart in the source; their conditions may differ.
# Experiments:
# eye bank eyes = experiment: Dye solution instilled by injection into the anterior chamber of eye bank eyes; staining and outflow seen by naked eye or operating microscope; design: species or system human; details: for Appearance (egress) of dye in the outflow vessels after injection into the anterior chamber: human eye bank eyes, Indigo Carmine 0.004, 0.04 and 0.4 wt. %
# From the text: After an incision is made into the anterior chamber of the eye, a small amount of aqueous humor is expressed and the dye solution is instilled by injection into the anterior chamber. The dye solution is typically left in place for 30 seconds, during which time it stains the anterior capsule of the lens. Excess dye solution is then expelled, usually using a viscoelastic device or flushed out with a balanced salt solution.
# Dye solutions containing 0.004 wt. %, 0.04 wt. %, and 0.4 wt. % of Indigo Carmine (prepared by serial dilutions of a 0.4 wt. % Indigo Carmine solution provided by Micro-Tech (Nanjing) Co.) were instilled by injection into the anterior chamber of seven eye bank eyes following the dye solution instillation procedure detailed above.
# Special imaging techniques were not required.
# [1] = test system: ocular surface squamous neoplastic lesion; experiment: Topical application of dye to a human eye, slit lamp view; format: in vivo
# From the text: FIG. 8 is a slit lamp view of a human eye wherein an ocular surface squamous neoplastic lesion is delineated after topical application of Indigo Carmine. A blue outline is seen around the perimeter of the white ocular surface squamous neoplastic lesion.
# porcine eye = experiment: Dye injected into the lenticular plain after Small Incision Lenticule Extraction (SMILE)
# From the text: FIG. 9A is an operating microscope view of a porcine eye upon which a Small Incision Lenticule Extraction procedure (SMILE) has been carried out. From this view, circular horizontal plains have been cut in the corneal stroma, a superficial smaller diameter cut and a deeper cut of larger diameter. The cuts join in the corneal periphery, thereby creating a lenticule. The arrows show the edge of these cuts.
# FIG. 9B is an operating microscope view of a porcine eye upon which a Small Incision Lenticule Extraction procedure (SMILE) has been carried out. Indigo Carmine has been injected into the lenticular plain.
# [2] = sodium salt; cited from earlier work
# [3] = cited from earlier work
# anterior capsule = details: cited from earlier work
# ocular structures = details: cited from earlier work
# [4] = anterior chamber perfused or injected with dye solution, sodium salt
compound,measurement,setting,value
"O=C1C(=C2Nc3ccc(S(=O)(=O)[O-])cc3C2=O)Nc2ccc(S(=O)(=O)[O-])cc21.[Na+].[Na+] [Indigo Carmine, 5,5′-indigodisulfonic acid sodium salt]",Diffusion of dye through tissues,eye bank eyes,generally does not diffuse through tissues
same,Staining of the canal of Schlemm,eye bank eyes; [4],stains heavily; also recorded: heavy staining of Schlemm's canal
same,Staining of the trabecular meshwork,eye bank eyes; [4],stains the trabecular meshwork lightly; also recorded: more lightly stained
same,Visibility of dye in the collector channels on the surface of the eye after passing through the drainage system,"eye bank eyes; at each concentration: 0.004 wt. %, 0.04 wt. %, 0.4 wt. %",visible to the naked eye of the surgeon
same,Appearance (egress) of dye in the outflow vessels after injection into the anterior chamber,eye bank eyes; sodium salt,"appeared in the fine vessels in the conjunctiva adjacent to the limbus, the aqueous veins and the conjunctival venous system; also recorded: some of the dye exiting the eye through the aqueous veins"
same,Staining of the anterior capsule of the lens,"eye bank eyes; injection via small corneal incision, capsulorhexis procedure, sodium salt",stain the anterior capsule of the crystalline lens; also recorded: lightly stained
same,Visibility of dye on the surface of the instilled eye,"eye bank eyes; no special imaging techniques, standard operating microscope",easily visible to the naked eye of the surgeon
same,Dye in the deep scleral plexus,"eye bank eyes; once the conjunctiva was reflected away, sodium salt",observed in the deep scleral plexus; also recorded: deeper vessels are seen
same,Delineation of ocular surface squamous neoplastic lesion,[1],delineated
same,Identification of the lenticule edge,porcine eye,white arrows indicate the complete circular edge of the lenticule
same,Protein binding,[2],low protein binding; also recorded: relatively reduced protein binding
same,Solubility in water,[3],soluble in water
CC1(C)C(/C=C/C=C/C=C/C=C2\N(CCCCS(=O)(=O)O)c3ccc4ccccc4c3C2(C)C)=[N+](CCCCS(=O)(=O)[O-])c2ccc3ccccc3c21 [Indocyanine Green],Appearance (egress) of dye in the outflow vessels after injection into the anterior chamber,eye bank eyes,the dye appears to remain within the eye
CCN(CC)c1ccc(C(=C2C=CC(=[N+](CC)CC)C=C2)c2cc(O)c(S(=O)(=O)O)cc2S(=O)(=O)O)cc1 [Patent Blue],Appearance (egress) of dye in the outflow vessels after injection into the anterior chamber,eye bank eyes,the dye appears to remain within the eye
Cc1cc(-c2ccc(/N=N/c3c(S(=O)(=O)O)cc4cc(S(=O)(=O)O)cc(N)c4c3O)c(C)c2)ccc1/N=N/c1c(S(=O)(=O)O)cc2cc(S(=O)(=O)O)cc(N)c2c1O [Trypan Blue],Appearance (egress) of dye in the outflow vessels after injection into the anterior chamber,eye bank eyes,the dye appears to remain within the eye
same,Lowest concentration at which staining of the anterior capsule occurs,anterior capsule,≥ 0.0125 wt. %
same,Identifying and visualizing anterior lens capsule and trabecular meshwork,ocular structures,effective
same,Identifying or visualizing the canal of Schlemm,ocular structures,not effective
Brilliant Blue,Appearance (egress) of dye in the outflow vessels after injection into the anterior chamber,eye bank eyes,the dye appears to remain within the eye
